This test relates to human papillomavirus 11. The test is described as follows: Inhibition of the assembly of the (HPV11) Human Papillomavirus Type 11 E1E2 Origin DNA Complex. The format is functional, organism-based.
Take `O=C(Nc1ccc2c(c1)OCO2)[C@H]1C(c2ccc(Cl)cc2)OC2(C(=O)c3ccccc3C2=O)[C@H]1C(=O)O` (stereo partly drawn): the concentration for half-maximal inhibition (IC50) is greater than 80 µM. As for `O=C(Nc1ccc2c(c1)OCO2)[C@H]1[C@@H](c2ccc(Cl)c(Cl)c2)OC2(C(=O)c3ccccc3C2=O)[C@H]1C(=O)O`, the figure is 0.35 µM. For `O=C(Nc1ccc2c(c1)OCO2)[C@H]1[C@@H](c2ccccc2Cl)OC2(C(=O)c3ccccc3C2=O)[C@H]1C(=O)O`, the IC50 is greater than 80 µM. Consider `O=C(Nc1ccc2c(c1)OCO2)[C@H]1[C@@H](c2ccc(Cl)cc2)OC2(C(=O)c3ccccc3C2=O)[C@H]1C(=O)O`, for which the concentration for half-maximal inhibition (IC50) was 7.8 µM. The compound `O=C1[C@H]2[C@H](c3ccc(Cl)cc3)OC3(C(=O)c4ccccc4C3=O)[C@H]2C(=O)N1c1ccc2c(c1)OCO2` returned an IC50 greater than 80 µM. Regarding `O=C1C2C(c3ccc(Cl)cc3)OC3(C(=O)c4ccccc4C3=O)C2C(=O)N1c1ccc2c(c1)OCO2` (stereo not drawn), 11 µM corresponded to half-maximal inhibition (IC50). This counts as double-digit micromolar.

As for `O=C(Nc1ccc2c(c1)OCO2)[C@H]1[C@@H](c2ccccc2)OC2(C(=O)c3ccccc3C2=O)[C@H]1C(=O)O`, the IC50 amounted to 71 µM. Against the preceding compound, the IC50 is about 6.5-fold higher. Turning to `O=C(Nc1ccc2c(c1)OCO2)[C@H]1[C@@H](c2cccc(Cl)c2)OC2(C(=O)c3ccccc3C2=O)[C@H]1C(=O)O`, the IC50 turned out to be 2.6 µM.
